In patent US20260152503A1, “SPIROBICYCLIC COMPOUNDS” (ACERAND THERAPEUTICS (HONG KONG) LIMITED, priority 2022, published 2026):
pIC50: −log10 of the molar value.

Experiments:
Format in all cases: cell-based
FGFR3 = biological target: T1, FGFR3 (Homo sapiens, UniProt P22607); assay: pERK potency assay (In Cell ELISA), RT112 cells; conditions: RT112 (FGFR3 overexpression/FGFR3-TACC3 fusion) cells, 3 hours
T1 construct: RT112 (FGFR3 overexpression/FGFR3-TACC3 fusion); host or cells: RT112; the other entry of the earlier key: TACC3 (Q9Y6A5, Transforming acidic coiled-coil-containing protein 3)
Source text: (§1) The purpose of this assay is to measure the ability of test compounds to inhibit FGFR mediated downstream signaling cascades, i.e., ERK phosphorylation in cells with FGFR aberrations. FGFR aberrations become constitutively active and thus induces cascades of cellular signaling events that result in increased phosphorylation of ERK at Threonine 202 and Tyrosine 204 (pERK). The procedure called In Cell ELISA described below measures the level of cellular pERK in response to FGFR specific inhibitor compounds in FGFR aberrations of AN3CA (FGFR2/k310R, N549K), DMS114 (FGFR1 amplification), RT112 (FGFR3 overexpression/FGFR3-TACC3 fusion) and Hep3B (FGF19 amplification) cells. AN3CA, DMS114 and Hep3B cells are from ATCC. RT112 cells are from Sigma. DMS114 cells are grown and maintained using RPMI-1640 medium supplemented with 10% heat-inactivated fetal bovine serum. AN3CA, Hep3B and RT112 cells are grown and maintained using DMEM supplemented with 10% heat-inactivated fetal bovine serum. On the day before test compound addition, cells are plated in poly-D-lysine coated 96-well cell culture plates (Corning® BioCoat® Cat #356640) at 40000 cells/well/100 μL and grown overnight in a 37° C., 5% CO2 incubator. Test compounds are prepared with 4-fold serial dilutions in DMSO, with a top concentration of 10 μM. On the day of the assay, 50 μL of test compound diluted in media was added to each well of cell culture plate with the final concentration of compounds spanning from 0.000038 μM to 10 μM. After compound addition, cells are incubated for 3 hours at 37° C., 5% CO2 and then the culture medium is removed. Cells are fixed with 4% formaldehyde in phosphate-buffered saline (PBS) and incubated at RT for 20 min. The plate is then washed three times with PBST (PBS with 0.05% tween-20), followed by the incubation with 100 μL of pre-cooled methanol at −20° C. for 20 min. After incubation, methanol is removed, and the plate is washed once with PBST. Cells are permeabilized with 100 µL/well of 0.1% Triton X-100 in PBS at RT for 20 min and then quenched with quenching buffer (PBST containing 1% H2O2 and 0.1% sodium azide) for 20 min at RT with gentle shaking. After washing once with PBST, blocking buffer (250 ul/well, Pierce™ Protein-Free-PBS Blocking Buffer, Cat #37572) was then added to the cells for 1-h incubation at RT, followed by anti-pERK antibody (cell signaling, 1:1000 dilution in 5% BSA in PBST) incubation overnight at 4° C. and secondary antibody-HRP (Jackson immunoresearch, 1:3000 dilution in 5% BSA in PBST) incubation at RT for 1 h. PBST wash is carried out after each step three times. Before the addition of the substrate (Advansta ELISABright), the plate is washed with PBS twice to remove detergent residues. Cellular pERK level is determined using the microplate reader (Biotek Synergy H1) to detect the chemiluminescence signal. IC50 is determined by fitting a 4-parameter sigmoidal concentration-response model. FGFR wild type cells (H1975, PC-9 and AGS) are used to serve as negative control (FGFR selectivity) with the same assay procedures described above.

FGFR2 = biological target: T2, FGFR2 (Homo sapiens, UniProt P21802, K310R/N549K); assay: pERK potency assay (In Cell ELISA), AN3CA cells; conditions: for pIC50: pERK, AN3CA (FGFR2/k310R, N549K) cells, 3 hours; for FGFR1 IC50/FGFR2 IC50 / FGFR3 IC50/FGFR2 IC50: selectivity ratio, pERK potency; for FGFR1 IC50/FGFR2 IC50: FGFR2 relative to FGFR1; for FGFR3 IC50/FGFR2 IC50: FGFR2 relative to FGFR3
T2 construct: in FGFR aberrations of AN3CA (FGFR2/k310R, N549K); host or cells: AN3CA
T2 sequence (P21802 22-821 K310R/N549K): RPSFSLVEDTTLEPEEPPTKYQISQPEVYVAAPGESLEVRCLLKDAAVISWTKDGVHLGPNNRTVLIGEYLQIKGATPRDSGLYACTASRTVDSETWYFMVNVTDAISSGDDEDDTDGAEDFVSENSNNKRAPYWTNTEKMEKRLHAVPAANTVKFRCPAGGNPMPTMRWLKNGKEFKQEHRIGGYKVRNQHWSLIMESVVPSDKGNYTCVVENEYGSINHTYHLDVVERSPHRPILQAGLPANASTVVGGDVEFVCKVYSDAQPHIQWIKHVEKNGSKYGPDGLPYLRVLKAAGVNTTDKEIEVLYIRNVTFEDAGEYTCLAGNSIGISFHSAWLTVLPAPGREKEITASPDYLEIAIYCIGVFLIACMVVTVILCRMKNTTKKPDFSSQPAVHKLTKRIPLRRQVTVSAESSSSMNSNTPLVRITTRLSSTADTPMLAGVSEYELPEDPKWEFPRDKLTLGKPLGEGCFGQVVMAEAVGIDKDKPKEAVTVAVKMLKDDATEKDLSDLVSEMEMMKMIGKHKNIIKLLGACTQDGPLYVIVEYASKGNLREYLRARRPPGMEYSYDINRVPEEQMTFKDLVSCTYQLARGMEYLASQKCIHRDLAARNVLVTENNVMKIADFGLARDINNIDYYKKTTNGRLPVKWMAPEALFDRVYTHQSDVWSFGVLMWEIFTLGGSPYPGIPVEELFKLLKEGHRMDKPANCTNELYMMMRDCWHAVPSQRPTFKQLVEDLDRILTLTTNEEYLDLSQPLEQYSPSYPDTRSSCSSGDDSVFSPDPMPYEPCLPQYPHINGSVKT
Source text: as §1

FGFR1 = biological target: T3, FGFR1 (Homo sapiens, UniProt P11362); assay: pERK potency assay (In Cell ELISA), DMS114 cells; conditions: DMS114 (FGFR1 amplification) cells, 3 hours
T3 construct: DMS114 (FGFR1 amplification); host or cells: DMS114
T3 sequence (P11362 22-822): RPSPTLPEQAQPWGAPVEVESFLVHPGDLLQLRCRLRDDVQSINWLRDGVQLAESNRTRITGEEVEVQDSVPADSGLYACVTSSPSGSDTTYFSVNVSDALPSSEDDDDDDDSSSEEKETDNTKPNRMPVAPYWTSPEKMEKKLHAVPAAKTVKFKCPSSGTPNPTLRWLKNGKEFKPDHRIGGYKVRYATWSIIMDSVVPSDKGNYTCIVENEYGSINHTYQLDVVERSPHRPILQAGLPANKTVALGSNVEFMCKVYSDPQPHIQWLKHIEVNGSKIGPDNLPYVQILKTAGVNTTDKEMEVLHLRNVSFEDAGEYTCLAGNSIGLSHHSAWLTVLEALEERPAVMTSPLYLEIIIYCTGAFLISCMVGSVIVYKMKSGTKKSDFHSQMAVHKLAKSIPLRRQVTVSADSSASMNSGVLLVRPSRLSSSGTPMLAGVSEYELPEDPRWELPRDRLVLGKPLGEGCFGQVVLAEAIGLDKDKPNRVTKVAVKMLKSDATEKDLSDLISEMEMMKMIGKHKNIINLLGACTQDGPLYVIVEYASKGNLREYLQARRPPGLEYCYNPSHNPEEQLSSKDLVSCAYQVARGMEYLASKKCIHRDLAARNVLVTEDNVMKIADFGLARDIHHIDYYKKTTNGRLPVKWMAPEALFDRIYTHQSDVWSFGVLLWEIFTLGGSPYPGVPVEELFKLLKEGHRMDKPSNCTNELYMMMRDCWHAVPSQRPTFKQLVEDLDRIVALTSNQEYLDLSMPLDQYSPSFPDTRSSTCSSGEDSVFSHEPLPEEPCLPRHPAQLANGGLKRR
Source text: as §1

Compound | pIC50 (FGFR3) | pIC50 (FGFR2) | FGFR1 IC50/FGFR2 IC50 (FGFR2) | FGFR3 IC50/FGFR2 IC50 (FGFR2) | pIC50 (FGFR1) | FGFR3 IC50/FGFR2 IC50 (FGFR2; given as numeric bound)
C=CC(=O)N1CC2(CC=C(c3c(-c4ccc(Oc5ncccn5)cc4)c4c(N)ncnc4n3C)CC2)C1 [Example 1, 1-(7-(4-amino-7-methyl-5-(4-(pyrimidin-2-yloxy)phenyl)-7H-pyrrolo[2,3-d]pyrimidin-6-yl)-2-azaspiro[3.5]non-6-en-2-yl)prop-2-en-1-one] | < 7.00 | 8.00 to 9.00 | I (a selectivity ratio greater than 1000 but less than or equal to 2000) | F (a selectivity ratio greater than 50 but less than or equal to 150) | < 7.00 | –
C=CC(=O)N1CCC2(CC=C(c3c(C4COC4)c4c(N)ncnc4n3C)CC2)CC1 [Example 55, 1-(9-(4-amino-7-methyl-5-(oxetan-3-yl)-7H-pyrrolo[2,3-d]pyrimidin-6-yl)-3-azaspiro[5.5]undec-8-en-3-yl)prop-2-en-1-one] | 7.00 to 7.52 | ≥ 9.00 | – | F (a selectivity ratio greater than 50 but less than or equal to 150) | 7.52 to 8.00 | –
C=CC(=O)N1CCC2(CC=C(c3c(-c4ccc(F)cc4)c4c(N)ncnc4n3C)CO2)CC1 [Example 41, 1-(3-(4-amino-5-(4-fluorophenyl)-7-methyl-7H-pyrrolo[2,3-d]pyrimidin-6-yl)-1-oxa-9-azaspiro[5.5]undec-3-en-9-yl)prop-2-en-1-one] | < 7.00 | 8.00 to 9.00 | H (a selectivity ratio greater than 500 but less than or equal to 1000) | H (a selectivity ratio greater than 500 but less than or equal to 1000) | < 7.00 | –
C=CC(=O)N1CCC2(CC=C(c3c(-c4cccnc4)c4c(N)ncnc4n3C)CC2)CC1 [Example 12, 1-(9-(4-amino-7-methyl-5-(pyridin-3-yl)-7H-pyrrolo[2,3-d]pyrimidin-6-yl)-3-azaspiro[5.5]undec-8-en-3-yl)prop-2-en-1-one] | < 7.00 | 7.52 to 8.00 | G (a selectivity ratio greater than 150 but less than or equal to 500) | H (a selectivity ratio greater than 500 but less than or equal to 1000) | < 7.00 | –
[2H]C([2H])([2H])Oc1ccc(-c2c(C3=C(F)CC4(CC3)CCN(C(=O)C=C)CC4)n(C)c3ncnc(N)c23)cc1 [Example 38, 1-(9-(4-amino-5-(4-(methoxy-d3)phenyl)-7-methyl-7H-pyrrolo[2,3-d]pyrimidin-6-yl)-8-fluoro-3-azaspiro[5.5]undec-8-en-3-yl)prop-2-en-1-one] | 7.00 to 7.52 | ≥ 9.00 | F (a selectivity ratio greater than 50 but less than or equal to 150) | F (a selectivity ratio greater than 50 but less than or equal to 150) | 7.00 to 7.52 | –
C=CC(=O)NC1CC2(CC=C(c3c(-c4ccc(OC)cc4)c4c(N)ncnc4n3C)CC2)C1 (centres unmarked) [Example 7, N-(7-(4-amino-5-(4-methoxyphenyl)-7-methyl-7H-pyrrolo[2,3-d]pyrimidin-6-yl)spiro[3.5]non-6-en-2-yl)acrylamide] | < 7.00 | 7.52 to 8.00 | – | – | < 7.00 | –
C=CC(=O)N1CCC2(CC=C(c3c(-c4ncccc4F)c4c(N)ncnc4n3C)CC2)CC1 [Example 49, 1-(9-(4-amino-5-(3-fluoropyridin-2-yl)-7-methyl-7H-pyrrolo[2,3-d]pyrimidin-6-yl)-3-azaspiro[5.5]undec-8-en-3-yl)prop-2-en-1-one] | < 7.00 | 7.00 to 7.52 | G (a selectivity ratio greater than 150 but less than or equal to 500) | G (a selectivity ratio greater than 150 but less than or equal to 500) | < 7.00 | –
C=CC(=O)N1CCC2(CC=C(c3c(-c4ccnn4C)c4c(N)ncnc4n3C)CC2)CC1 [Example 13, 1-(9-(4-amino-7-methyl-5-(1-methyl-1H-pyrazol-5-yl)-7H-pyrrolo[2,3-d]pyrimidin-6-yl)-3-azaspiro[5.5]undec-8-en-3-yl)prop-2-en-1-one] | < 7.00 | < 7.00 | – | – | < 7.00 | –
C=CC(=O)N1CCC2(CC=C(c3c(-c4cncnc4)c4c(N)ncnc4n3C)CC2)CC1 [Example 32, 1-(9-(4-amino-7-methyl-5-(pyrimidin-5-yl)-7H-pyrrolo[2,3-d]pyrimidin-6-yl)-3-azaspiro[5.5]undec-8-en-3-yl)prop-2-en-1-one] | < 7.00 | 7.00 to 7.52 | F (a selectivity ratio greater than 50 but less than or equal to 150) | G (a selectivity ratio greater than 150 but less than or equal to 500) | < 7.00 | –
C=CC(=O)N1CCC2(CC=C(c3c(-c4ccc(OC)nc4)c4c(N)ncnc4n3C)CC2)CC1(C)C (centres unmarked) [Example 40, 1-(9-(4-amino-5-(6-methoxypyridin-3-yl)-7-methyl-7H-pyrrolo[2,3-d]pyrimidin-6-yl)-2,2-dimethyl-3-azaspiro[5.5]undec-8-en-3-yl)prop-2-en-1-one] | < 7.00 | 8.00 to 9.00 | G (a selectivity ratio greater than 150 but less than or equal to 500) | I (a selectivity ratio greater than 1000 but less than or equal to 2000) | < 7.00 | –
C=CC(=O)NC1CC2(CC=C(c3c(-c4ccc(Oc5ncccn5)cc4)c4c(N)ncnc4n3C)CC2)C1 (centres unmarked) [Example 9, N-(7-(4-amino-7-methyl-5-(4-(pyrimidin-2-yloxy)phenyl)-7H-pyrrolo[2,3-d]pyrimidin-6-yl)spiro[3.5]non-6-en-2-yl)acrylamide] | < 7.00 | 7.52 to 8.00 | F (a selectivity ratio greater than 50 but less than or equal to 150) | – | < 7.00 | <50
C=CC(=O)N1CCC2(CC=C(c3c(-c4ccnnc4)c4c(N)ncnc4n3C)CC2)CC1 [Example 31, 1-(9-(4-amino-7-methyl-5-(pyridazin-4-yl)-7H-pyrrolo[2,3-d]pyrimidin-6-yl)-3-azaspiro[5.5]undec-8-en-3-yl)prop-2-en-1-one] | < 7.00 | < 7.00 | – | – | < 7.00 | –
C=CC(=O)N1CCC2(CC=C(c3c(-c4ncccn4)c4c(N)ncnc4n3C)CC2)CC1(C)C (centres unmarked) [Example 34, 1-(9-(4-amino-7-methyl-5-(pyrimidin-2-yl)-7H-pyrrolo[2,3-d]pyrimidin-6-yl)-2,2-dimethyl-3-azaspiro[5.5]undec-8-en-3-yl)prop-2-en-1-one] | < 7.00 | 8.00 to 9.00 | H (a selectivity ratio greater than 500 but less than or equal to 1000) | J (a selectivity ratio greater than 2000) | < 7.00 | –
C=CC(=O)N1CCC2(CC=C(c3c(-c4ccc(OCCN5CCCC5)cc4)c4c(N)ncnc4n3C)CC2)CC1 [Example 20, 1-(9-(4-amino-7-methyl-5-(4-(2-(pyrrolidin-1-yl)ethoxy)phenyl)-7H-pyrrolo[2,3-d]pyrimidin-6-yl)-3-azaspiro[5.5]undec-8-en-3-yl)prop-2-en-1-one] | < 7.00 | 7.00 to 7.52 | – | F (a selectivity ratio greater than 50 but less than or equal to 150) | < 7.00 | –
